Experimental data as given in the supplement of paper PMC8149375.

Assays:
Conditions in all cases: treatment: drug alone; 5 days
769-P [1] = experiment: minimum viability across doses, drug alone, relative to DMSO (fraction); higher = less growth inhibition
Experimental: (§1)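 Primary HTS: 8 RCC cell lines treated with 8 doses (up to 10 uM) of each library drug alone for 5 days; viability read by CellTiter-Glo and normalised to DMSO. GI50 was fitted with XLfit (4-parameter), AUC is the area under the dose-response curve, and minimum viability is the lowest fraction of DMSO viability across doses.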

SN12C [2] = experiment: as above
Experimental: as §1

A498 [3] = experiment: as above
Experimental: as §1

TK-10 [4] = experiment: as above
Experimental: as §1

CAKI-1 [5] = experiment: as above
Experimental: as §1

ACHN [6] = experiment: as above
Experimental: as §1

UO-31 [7] = experiment: as above
Experimental: as §1

786-O [8] = experiment: as above
Experimental: as §1

769-P [9] = experiment: AUC of dose-response viability curve, drug alone (arbitrary (AUC of normalised viability)); higher = less growth inhibition
Experimental: as §1

SN12C [10] = experiment: as above
Experimental: as §1

A498 [11] = experiment: as above
Experimental: as §1

TK-10 [12] = experiment: as above
Experimental: as §1

CAKI-1 [13] = experiment: as above
Experimental: as §1

ACHN [14] = experiment: as above
Experimental: as §1

UO-31 [15] = experiment: as above
Experimental: as §1

786-O [16] = experiment: as above
Experimental: as §1

769-P [17] = experiment: GI50, drug alone; higher = less potent
Experimental: as §1

SN12C [18] = experiment: GI50, drug alone; higher = less potent
Experimental: as §1

A498 [19] = experiment: GI50, drug alone; higher = less potent
Experimental: as §1

TK-10 [20] = experiment: GI50, drug alone; higher = less potent
Experimental: as §1

CAKI-1 [21] = experiment: GI50, drug alone; higher = less potent
Experimental: as §1

ACHN [22] = experiment: GI50, drug alone; higher = less potent
Experimental: as §1

UO-31 [23] = experiment: GI50, drug alone; higher = less potent
Experimental: as §1

786-O [24] = experiment: GI50, drug alone; higher = less potent
Experimental: as §1

Structure (SMILES)	GI50, drug alone (ACHN [22])	GI50, drug alone (786-O [24])	minimum viability across doses (769-P [1])	minimum viability across doses (SN12C [2])	minimum viability across doses (A498 [3])	minimum viability across doses (TK-10 [4])	minimum viability across doses (CAKI-1 [5])	minimum viability across doses (ACHN [6])	minimum viability across doses (UO-31 [7])	minimum viability across doses (786-O [8])	AUC of dose-response viability curve (769-P [9])	AUC of dose-response viability curve (SN12C [10])	AUC of dose-response viability curve (A498 [11])	AUC of dose-response viability curve (TK-10 [12])	AUC of dose-response viability curve (CAKI-1 [13])	AUC of dose-response viability curve (ACHN [14])	AUC of dose-response viability curve (UO-31 [15])	AUC of dose-response viability curve (786-O [16])	GI50, drug alone (769-P [17])	GI50, drug alone (SN12C [18])	GI50, drug alone (A498 [19])	GI50, drug alone (TK-10 [20])	GI50, drug alone (CAKI-1 [21])	GI50, drug alone (UO-31 [23])
COc1cc2c(N3CCN(C(=O)Nc4ccc(OC(C)C)cc4)CC3)ncnc2cc1OCCCN1CCCCC1 [Tandutinib (MLN518)]	> 10 µM	> 10 µM	0.818	0.74	0.96	0.818	0.729	0.767	1.09	0.609	3.32	3.14	3.63	3.23	3.41	3.5	4.36	3.61	> 10 µM	> 10 µM	> 10 µM	> 10 µM	> 10 µM	> 10 µM
CNC(=O)c1cc(COc2nnc(Nc3ccc(Cl)cc3)c3ccoc23)ccn1 [Telatinib (BAY 57-9352)]	9.99 µM	3.22 µM	0.484	0.79	0.951	0.319	0.267	0.497	0.749	0.0383	3.4	3.27	4.32	2.96	3.3	3.42	4.45	2.61	9.79 µM	> 10 µM	> 10 µM	6.45 µM	6.76 µM	> 10 µM
CC(=O)Nc1ccc(NC(=S)NC(=O)c2ccc(C(C)(C)C)cc2)cc1 [Tenovin-1]	9.84 µM	0.17 µM	0.0841	0.762	0.0355	0.412	0.536	0.515	0.00581	0.00113	2.48	3.15	2.77	2.63	2.96	2.75	2.6	1.52	0.818 µM	> 10 µM	0.978 µM	5.19 µM	> 10 µM	0.264 µM
O=C1CCC(N2C(=O)c3ccccc3C2=O)C(=O)N1 (configuration not stated) [Thalidomide]	> 10 µM	0.288 µM	0.949	0.88	1.05	0.824	0.932	0.802	1.21	0.0165	3.56	3.37	4.19	3.12	3.56	3.18	4.89	2	> 10 µM	> 10 µM	> 10 µM	> 10 µM	> 10 µM	> 10 µM
O=C(NCc1ccccc1)c1csc(Nc2ccncn2)n1 [Thiazovivin]	7.22 µM	> 10 µM	0.717	0.804	0.891	0.69	0.609	0.369	0.279	0.526	3.01	3.58	3.9	3.36	3.17	3.15	3.55	2.69	> 10 µM	> 10 µM	> 10 µM	> 10 µM	> 10 µM	4.49 µM
O=c1sn(-c2cccc3ccccc23)c(=O)n1Cc1ccccc1 [Tideglusib]	> 10 µM	0.0203 µM	0.948	0.871	0.979	0.736	0.941	0.822	1.14	0.485	3.48	3.28	3.82	2.95	3.54	3.19	4.53	2.12	> 10 µM	> 10 µM	> 10 µM	> 10 µM	> 10 µM	> 10 µM
COc1ccc2cc(-c3[nH]c(-c4ccc(S(C)=O)cc4)nc3-c3ccncc3)ccc2c1 (configuration not stated) [Tie2 kinase inhibitor]	> 10 µM	> 10 µM	0.951	0.755	1.08	0.799	0.864	0.762	1.2	0.52	3.4	3.4	4.67	3.35	3.54	3.08	5.91	3.15	> 10 µM	> 10 µM	> 10 µM	> 10 µM	> 10 µM	> 10 µM
COc1cc2nccc(Oc3ccc(NC(=O)Nc4cc(C)on4)c(Cl)c3)c2cc1OC [Tivozanib (AV-951)]	6.95 µM	> 10 µM	0.849	0.417	1.12	0.641	0.0726	0.352	0.00837	0.904	3.47	3.26	4.88	3.14	2.12	3.21	2.98	3.89	> 10 µM	9.39 µM	> 10 µM	> 10 µM	2.02 µM	0.301 µM
CCC(=O)N1CCN(c2ccc(-n3c(=O)ccc4cnc5ccc(-c6cnc7ccccc7c6)cc5c43)cc2C(F)(F)F)CC1 [Torin 1]	0.0331 µM	0.0551 µM	0.101	0.127	0.0183	0.116	0.0409	0.0432	0.00725	0.0473	1.54	1.56	1.81	1.33	1.32	1.13	1.71	1.39	0.0719 µM	0.0872 µM	0.0888 µM	> 10 µM	0.057 µM	0.0767 µM
CC(C)(C)c1cc(/C=C(\C#N)C(N)=S)cc(C(C)(C)C)c1O [Tyrphostin AG 879 (AG 879)]	> 10 µM	< 0.003 µM	0.91	0.787	1.02	0.748	0.712	0.78	1.28	0.257	3.56	3.11	4.17	2.95	3.62	3.12	5.27	1.6	> 10 µM	> 10 µM	> 10 µM	> 10 µM	> 10 µM	> 10 µM
CCO.N#CC(=C(/N)Sc1ccccc1N)/C(C#N)=C(\N)Sc1ccccc1N [U0126-EtOH]	> 10 µM	> 10 µM	0.806	0.901	0.913	0.656	0.564	0.646	0.943	0.576	3.3	3.49	3.94	2.95	3.35	3.17	4	2.86	> 10 µM	> 10 µM	> 10 µM	> 10 µM	> 10 µM	> 10 µM
Cc1cc(Nc2cc(N3CCN(C)CC3)nc(Sc3ccc(NC(=O)C4CC4)cc3)n2)n[nH]1 [VX-680 (MK-0457, Tozasertib)]	0.725 µM	0.159 µM	0.386	0.2	0.254	0.548	0.241	0.214	0.577	0.133	2.67	2.57	3.1	2.96	2.54	2.35	3.24	1.85	2.93 µM	1.48 µM	3.2 µM	> 10 µM	1.25 µM	> 10 µM
COc1cc2c(Nc3ccc(Br)cc3F)ncnc2cc1OCC1CCN(C)CC1 [Vandetanib (Zactima)]	1.57 µM	> 10 µM	0.324	0.507	0.68	0.166	0.265	0.133	0.162	0.532	2.88	3.2	3.29	2.58	3.12	2.6	4.05	2.98	5.26 µM	> 10 µM	> 10 µM	1.8 µM	5.12 µM	9.07 µM

Continued, in another order:

GI50, drug alone (ACHN [22])	GI50, drug alone (786-O [24])	Structure (SMILES)	minimum viability across doses (769-P [1])	minimum viability across doses (SN12C [2])	minimum viability across doses (A498 [3])	minimum viability across doses (TK-10 [4])	minimum viability across doses (CAKI-1 [5])	minimum viability across doses (ACHN [6])	minimum viability across doses (UO-31 [7])	minimum viability across doses (786-O [8])	AUC of dose-response viability curve (769-P [9])	AUC of dose-response viability curve (SN12C [10])	AUC of dose-response viability curve (A498 [11])	AUC of dose-response viability curve (TK-10 [12])	AUC of dose-response viability curve (CAKI-1 [13])	AUC of dose-response viability curve (ACHN [14])	AUC of dose-response viability curve (UO-31 [15])	AUC of dose-response viability curve (786-O [16])	GI50, drug alone (769-P [17])	GI50, drug alone (SN12C [18])	GI50, drug alone (A498 [19])	GI50, drug alone (TK-10 [20])	GI50, drug alone (CAKI-1 [21])	GI50, drug alone (UO-31 [23])
1.29 µM	4.89 µM	NC(=O)Nc1sc(-c2ccc(F)cc2)cc1C(N)=O [TPCA-1]	0.355	0.544	1.1	0.178	0.117	0.201	0.627	0.189	3.16	3.24	4.38	2.53	2.67	2.57	3.64	2.54	> 10 µM	> 10 µM	> 10 µM	1.78 µM	1.45 µM	> 10 µM
> 10 µM	> 10 µM	Cc1[nH]c(/C=C2\C(=O)Nc3ccccc32)c(C)c1CCC(=O)O [TSU-68]	0.887	0.882	0.884	0.855	0.903	0.752	0.879	0.786	3.3	3.41	3.71	3.26	3.34	3.12	2.36	3.1	> 10 µM	> 10 µM	> 10 µM	> 10 µM	> 10 µM	> 10 µM
1.46 µM	0.133 µM	CC(C)c1ccccc1Cc1cc(C(=O)Nc2ccc(S(=O)(=O)c3ccccc3C(C)(C)C)cc2)c(O)c(O)c1O [TW-37]	0.0442	0.499	0.946	0.296	0.0857	0.0989	0.0881	0.0508	3.12	2.97	4	2.25	2.77	2.48	4.07	1.54	2.8 µM	> 10 µM	> 10 µM	1.73 µM	0.926 µM	8.46 µM
2.8 µM	5.04 µM	Nc1cccc(-c2cc3c(Oc4cccc(O)c4)ncnc3[nH]2)c1 [TWS119]	0.0987	0.295	0.572	0.0991	0.113	0.153	0.0946	0.154	2.93	2.86	3.93	2.75	3.09	2.77	4.2	3.03	3.63 µM	5.5 µM	> 10 µM	2.65 µM	4.56 µM	8.62 µM
> 10 µM	> 10 µM	NC(=O)c1ccc(N(C(N)=O)c2c(F)cccc2F)nc1-c1ccc(F)cc1F [VX-702]	0.946	0.944	0.924	0.674	0.76	0.656	0.806	0.661	3.44	3.56	3.72	2.79	3.27	3.03	3.75	2.9	> 10 µM	> 10 µM	> 10 µM	> 10 µM	> 10 µM	> 10 µM
